# Publication PMC5041959, “A high-content EMT screen identifies multiple receptor tyrosine kinase inhibitors with activity on TGFβ receptor” (Oncotarget, 2016)
# pIC50: −log10 of the molar value. Read-outs that look alike come from different tables or passages of the source.
# Tests used:
# [1] = system: NMuMG cells; assay: High-content microscopy EMT screen in TGFβ-treated NMuMG cells (FA, SF, FN, cell count); format: cell-based, murine
# [2] = target: SRC (Homo sapiens, UniProt P12931); assay: Biochemical kinase profiling (33PanQinase radiometric assay); settings: read-out: SRC IC50; ATP at apparent Km
# [3] = system: Py2T cells; assay: High-content microscopy EMT assay in TGFβ-treated Py2T breast cancer cells; format: cell-based, murine; settings: Mus musculus
# [4] = Mus musculus; NMuMG; cell count decreased by 50% compared to DMSO control; read-out: Tox IC50
# [5] = NMuMG, TGFβ1 2 ng/ml plus compound, 4 days; parameter decreased by 50%
# [6] = NMuMG; compared to reference 10 μM SB-431542 = 100%
# SRC, sequence (P12931 whole entry): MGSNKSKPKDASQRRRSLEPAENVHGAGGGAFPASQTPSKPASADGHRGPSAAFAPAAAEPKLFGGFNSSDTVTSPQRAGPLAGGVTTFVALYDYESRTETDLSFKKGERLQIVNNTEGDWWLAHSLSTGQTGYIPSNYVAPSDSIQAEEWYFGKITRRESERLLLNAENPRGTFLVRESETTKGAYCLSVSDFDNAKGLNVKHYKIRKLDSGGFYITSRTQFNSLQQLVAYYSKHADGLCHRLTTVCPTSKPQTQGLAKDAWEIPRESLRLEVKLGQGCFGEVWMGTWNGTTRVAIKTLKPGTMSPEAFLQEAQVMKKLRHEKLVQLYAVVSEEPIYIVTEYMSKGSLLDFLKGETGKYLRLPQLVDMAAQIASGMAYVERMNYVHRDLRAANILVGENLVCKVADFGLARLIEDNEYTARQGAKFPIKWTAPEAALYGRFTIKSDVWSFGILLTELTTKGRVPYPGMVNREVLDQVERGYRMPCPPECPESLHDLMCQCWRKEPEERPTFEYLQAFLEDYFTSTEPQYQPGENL
"FA IC50 (focal adhesion formation) [1, 5]","FN IC50 (fibronectin patch formation) [1, 5]","SF IC50 (stress fibers) [1, 5]",SMILES,"pIC50 [1, 4]","Emax (maximal effect on cell count) [1, 6]",also measured
n.m.,n.m.,n.m.,Nc1ncn([C@@H]2O[C@H](CO)[C@@H](O)[C@H]2O)c(=O)n1 [5-Azacytidine],5.90,n.m.,
,,,O=c1[nH]c(=O)n([C@H]2C[C@H](O)[C@@H](CO)O2)cc1Br [5-Bromo-2′-deoxyuridine],< 5.52,,"pIC50 ([1]; Mus musculus, 96 h; NMuMG, TGFβ1 2 ng/ml plus compound, 4 days; parameter decreased by 50%; read-out: FA IC50 (focal adhesion formation)): 6.14; pIC50 ([1]; Mus musculus, 96 h; NMuMG, TGFβ1 2 ng/ml plus compound, 4 days; parameter decreased by 50%; read-out: FN IC50 (fibronectin patch formation)): 6.49; pIC50 ([1]; Mus musculus, 96 h; NMuMG, TGFβ1 2 ng/ml plus compound, 4 days; parameter decreased by 50%; read-out: SF IC50 (stress fibers)): 6.20; pIC50 ([1]; Mus musculus; read-out: CCI IC50 (cell count increase)): 6.52; Emax ([1]; Mus musculus; read-out: Emax (maximal effect on cell count)): 19%"
n.m.,n.m.,n.m.,CCN1CCN(Cc2ccc(-c3cc4c(N[C@H](C)c5ccccc5)ncnc4[nH]3)cc2)CC1 [AEE788],7.36,n.m.,
,,,CNC(=O)c1ccccc1Sc1ccc2c(/C=C/c3ccccn3)n[nH]c2c1 [Axitinib],,n.m.,
,,,Cc1ccc2c(c1)C(=O)C1(O)CCN(c3ccccc3)C1=N2 (stereo not drawn) [Blebbistatin],,29.4%,"pIC50 [2]: 5.36; pIC50 ([1]; NMuMG, TGFβ1 2 ng/ml plus compound, 4 days; parameter decreased by 50%; read-out: FA IC50 (focal adhesion formation)): 5.37; pIC50 ([1]; NMuMG, TGFβ1 2 ng/ml plus compound, 4 days; parameter decreased by 50%; read-out: FN IC50 (fibronectin patch formation)): 5.59; pIC50 ([1]; NMuMG, TGFβ1 2 ng/ml plus compound, 4 days; parameter decreased by 50%; read-out: SF IC50 (stress fibers)): 5.48; pIC50 ([1]; NMuMG; cell count decreased by 50% compared to DMSO control; read-out: Tox IC50): < 5.29; pIC50 ([1]; NMuMG; mean of IC50 values obtained for FA, SF, FN; read-out: EMT (FA/SF/FN) combined IC50): 5.47"
n.m.,n.m.,n.m.,"COc1cc2c(Oc3ccc4[nH]c(C)cc4c3F)ncnc2cc1OCCCN1CCCC1 [Cediranib (azd2171), Cediranib]",6.01,n.m.,
n.m.,n.m.,n.m.,C[C@@H](Oc1cc(-c2cnn(C3CCNCC3)c2)cnc1N)c1c(Cl)ccc(F)c1Cl [Crizotinib],5.77,n.m.,
n.m.,n.m.,n.m.,Cc1nc(Nc2ncc(C(=O)Nc3c(C)cccc3Cl)s2)cc(N2CCN(CCO)CC2)n1 [Dasatinib],7.29,n.m.,
n.m.,n.m.,n.m.,COc1cc([C@@H]2c3cc4c(cc3[C@@H](O[C@@H]3O[C@@H]5CO[C@@H](C)O[C@H]5[C@H](O)[C@H]3O)[C@H]3COC(=O)[C@H]23)OCO4)cc(OC)c1O [Etoposide],5.93,n.m.,
,,,O=S(=O)(c1cccc2cnccc12)N1CCCNCC1 [Fasudil],,,"pIC50 ([3]; read-out: CCI IC50 (cell count increase)): 5.77; Emax ([3]; read-out: Emax (maximal effect on cell count)): 53.6%; pIC50 ([3]; read-out: Tox IC50): < 4.60; pIC50 ([1]; Mus musculus, read-out: CCI IC50 (cell count increase)): 5.54; pIC50 ([1]; Mus musculus, read-out: EMT (FA/SF/FN) combined IC50): 5.52; Emax ([1]; Mus musculus, read-out: Emax (maximal effect on cell count)): 28.2%; pIC50 ([1]; Mus musculus, read-out: Tox IC50): < 4.60"

SMILES,"FA IC50 (focal adhesion formation) [1, 5]","FN IC50 (fibronectin patch formation) [1, 5]","SF IC50 (stress fibers) [1, 5]","pIC50 [1, 4]","Emax (maximal effect on cell count) [1, 6]",also measured
Nc1ncn([C@H]2C[C@H](O)[C@@H](CO)O2)c(=O)n1 [5-Aza-2′-deoxycytidine],n.m.,n.m.,n.m.,6.41,n.m.,
"c1ccc2c(c1)[I+]c1ccccc1-2 [Diphenyleneiodonium chloride (DPI), Diphenyleneiodonium chloride]",n.m.,n.m.,n.m.,6.34,n.m.,
C#Cc1cccc(Nc2ncnc3cc(OCCOC)c(OCCOC)cc23)c1 [Erlotinib],n.m.,n.m.,n.m.,7.16,,Emax (maximal effect on cell count) [1]: n.m.
